Source: ChEMBL document CHEMBL1201862, “PubChem BioAssay data set” (2004)
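Following 48 hours of exposure in 96-well plates, responses at five concentrations were used to interpolate endpoints linearly. GI50 is the concentration that inhibits growth by half.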 Calls of active or inactive are those of the source. No stated cut-off is given here; in the data, active = GI50 up to about 1.1 µM and inactive = higher.

How the values were obtained:
Test in all cases: NCI anticancer screen, dose series, 48 h
RPMI-8226 = tested on: RPMI-8226
786-0 = tested on: 786-0
SF-295 = tested on: SF-295
UACC-257 = tested on: UACC-257
LOX IMVI = tested on: LOX IMVI
SF-268 = tested on: SF-268
SF-539 = tested on: SF-539
K562 = tested on: K562
SK-MEL-28 = tested on: SK-MEL-28
HT-29 = tested on: HT-29
OVCAR-3 = tested on: OVCAR-3
UO-31 = tested on: UO-31
HCC 2998 = tested on: HCC 2998
A498 = tested on: A498
Malme-3M = tested on: Malme-3M
OVCAR-4 = tested on: OVCAR-4
SR = tested on: SR
HCT-15 = tested on: HCT-15
HOP-62 = tested on: HOP-62

| Structure (SMILES) | GI50 (RPMI-8226) | GI50 (786-0) | GI50 (SF-295) | GI50 (UACC-257) | GI50 (LOX IMVI) | GI50 (SF-268) | GI50 (SF-539) | GI50 (K562) | GI50 (SK-MEL-28) | GI50 (HT-29) | GI50 (OVCAR-3) | GI50 (UO-31) | GI50 (HCC 2998) | GI50 (A498) | GI50 (Malme-3M) | GI50 (OVCAR-4) | GI50 (SR) | GI50 (HCT-15) [µM] | GI50 (HOP-62) |
| --- | --- | --- | --- | --- | --- | --- | --- | --- | --- | --- | --- | --- | --- | --- | --- | --- | --- | --- | --- |
| NS(=O)(=O)c1ccccc1C(=O)N/N=C(\c1nc2ccc([N+](=O)[O-])cc2[nH]c1=O)C(O)c1ccc([N+](=O)[O-])cc1 (configuration not stated) | 58.5 µM (inactive) | > 100 µM (inactive) | > 100 µM (inactive) | > 100 µM (inactive) | 84.1 µM (inactive) | > 100 µM (inactive) | 49.2 µM (inactive) | 56.5 µM (inactive) | > 100 µM (inactive) | > 100 µM (inactive) | > 100 µM (inactive) | 63.7 µM (inactive) | > 100 µM (inactive) | > 100 µM (inactive) | > 100 µM (inactive) | > 100 µM (inactive) | > 100 µM (inactive) | 24.2 | – |
| Cn1c2ccccc2c2c(=S)c3ccccc3ccc21 | – | > 100 µM (inactive) | 76 µM (inactive) | > 100 µM (inactive) | 62.1 µM (inactive) | > 100 µM (inactive) | – | 43.5 µM (inactive) | > 100 µM (inactive) | 63.4 µM (inactive) | 17.8 µM (inactive) | > 100 µM (inactive) | > 100 µM (inactive) | > 100 µM (inactive) | > 100 µM (inactive) | 44.6 µM (inactive) | > 100 µM (inactive) | > 100 | 79.6 µM (inactive) |
| COc1cc(/C=C/C2=NN(c3cccc(S(=O)(=O)O)c3)C3(C2)SCC(=O)N3c2nc3ccccc3s2)cc(OC)c1OC (configuration not stated) | 21.3 µM (inactive) | 18.4 µM (inactive) | – | 95.7 µM (inactive) | 20.4 µM (inactive) | 39.4 µM (inactive) | 46 µM (inactive) | 41.1 µM (inactive) | > 100 µM (inactive) | 90.8 µM (inactive) | – | 36.1 µM (inactive) | > 100 µM (inactive) | 39.9 µM (inactive) | > 100 µM (inactive) | 78.7 µM (inactive) | 23.8 µM (inactive) | 51.9 | – |
| CCC(C)(C)C1CCC2c3c([nH]c4ccccc34)C3C(=O)N(c4ccc(OC)cc4)C(=O)C3C2C1 (configuration not stated) | – | 10.6 µM (inactive) | 20.8 µM (inactive) | 34 µM (inactive) | 6.81 µM (inactive) | 15 µM (inactive) | 12.4 µM (inactive) | 5.16 µM (inactive) | 25.9 µM (inactive) | 11.2 µM (inactive) | 2.19 µM (inactive) | 24.4 µM (inactive) | 5.77 µM (inactive) | – | 19.4 µM (inactive) | 16.7 µM (inactive) | 39.8 µM (inactive) | 27.5 | 10.2 µM (inactive) |
| CC(C)=C/C(CC(O)(C(F)(F)F)C(F)(F)F)=N\O | > 100 µM (inactive) | > 100 µM (inactive) | > 100 µM (inactive) | > 100 µM (inactive) | > 100 µM (inactive) | > 100 µM (inactive) | > 100 µM (inactive) | > 100 µM (inactive) | > 100 µM (inactive) | > 100 µM (inactive) | – | > 100 µM (inactive) | > 100 µM (inactive) | 50.9 µM (inactive) | > 100 µM (inactive) | > 100 µM (inactive) | > 100 µM (inactive) | > 100 | > 100 µM (inactive) |
| CC(=O)N1N=C(c2ccc3ccccc3c2O)CC1C(=O)c1ccco1 (configuration not stated) | 17.2 µM (inactive) | 45 µM (inactive) | 24 µM (inactive) | 32.1 µM (inactive) | – | 14.4 µM (inactive) | 26.1 µM (inactive) | 11.6 µM (inactive) | 37.8 µM (inactive) | 22.8 µM (inactive) | 20.3 µM (inactive) | 23.1 µM (inactive) | 16.3 µM (inactive) | 29.7 µM (inactive) | 23.2 µM (inactive) | 17.5 µM (inactive) | 3.78 µM (inactive) | 26.7 | 30.6 µM (inactive) |
| CCOP(=O)(OCC)/C(C#N)=C/c1cccn1C(C)C | – | > 100 µM (inactive) | > 100 µM (inactive) | > 100 µM (inactive) | > 100 µM (inactive) | > 100 µM (inactive) | > 100 µM (inactive) | > 100 µM (inactive) | > 100 µM (inactive) | > 100 µM (inactive) | > 100 µM (inactive) | > 100 µM (inactive) | > 100 µM (inactive) | > 100 µM (inactive) | > 100 µM (inactive) | – | > 100 µM (inactive) | > 100 | > 100 µM (inactive) |
| c1ccc(CN2C3C4N(Cc5ccccc5)C2C2N(Cc5ccccc5)C(C(N2Cc2ccccc2)N4Cc2ccccc2)N3Cc2ccccc2)cc1 | > 100 µM (inactive) | > 100 µM (inactive) | > 100 µM (inactive) | > 100 µM (inactive) | > 100 µM (inactive) | > 100 µM (inactive) | > 100 µM (inactive) | > 100 µM (inactive) | > 100 µM (inactive) | > 100 µM (inactive) | > 100 µM (inactive) | – | > 100 µM (inactive) | > 100 µM (inactive) | – | – | > 100 µM (inactive) | > 100 | > 100 µM (inactive) |
